From patent publication US4593104A, “2-halo-N-(azole-1-yl-methyl)-substituted acetanilides” (BASF Aktiengesellschaft, priority 1976, dated 1986)

Key:
Amar. retro. = test: preemergence treatment in the greenhouse, % damage; format: in vivo
Outline: (§1)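 Seeds sown in sandy loam (~1.5% humus); pre-emergence: agents sprayed in water onto soil surface immediately after sowing, then irrigated and hooded until rooting. Post-emergence: plants treated at 3–10 cm height, unhooded. Greenhouse at 25–40 °C or 15–30 °C by species; rates in kg/ha a.i.; damage scored 0–100 after 4–6 weeks.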

Cenchr. ech. = test: preemergence treatment in the greenhouse, % damage; format: in vivo
Outline: as §1

Cyp. diff. = test: preemergence treatment in the greenhouse, % damage; format: in vivo
Outline: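 Sow shallow in sandy loam, spray actives (water vehicle) on soil at once for preemergence, irrigate, hood until rooting; or grow to 3–10 cm and spray unhooded for postemergence. Keep 4–6 weeks at 15–40 °C by species, then score damage 0–100.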

Echin. c.g. = test: preemergence treatment in the greenhouse, % damage; format: in vivo
Outline: as §1

Ipom. spp. = test: preemergence treatment in the greenhouse, % damage; format: in vivo
Outline: as §1

Lept. spp. = test: preemergence treatment in the greenhouse, % damage; format: in vivo
Outline: as §1

Panic. virg. = test: preemergence treatment in the greenhouse, % damage; format: in vivo
Outline: as §1

Sida spin. = test: preemergence treatment in the greenhouse, % damage; format: in vivo
Outline: as §1

Solanum nigrum = test: preemergence treatment in the greenhouse, % damage; format: in vivo
Outline: as §1

Glyc. max = test: preemergence treatment in the greenhouse, % damage; format: in vivo, Glycine max
Outline: as §1

Gossyp. hirs. = test: preemergence treatment in the greenhouse, % damage; format: in vivo, Gosspyium hirsutum
Outline: as §1

Alopec. myosur. [1] = test: preemergence treatment in the greenhouse, % damage; format: in vivo
Outline: as §1

Brassica napus = test: preemergence treatment in the greenhouse, % damage; format: in vivo
Outline: as §1

Bromus spp. = test: preemergence treatment in the greenhouse, % damage; format: in vivo
Outline: as §1

Matric. spp. = test: preemergence treatment in the greenhouse, % damage; format: in vivo
Outline: as §1

Setaria spp. = test: preemergence treatment in the greenhouse, % damage; format: in vivo
Outline: as §1

Zea mays = test: preemergence treatment in the greenhouse, % damage; format: in vivo
Outline: as §1

Beta vulg. = test: Table 13, % damage; format: in vivo, Beta vulgaris
Source text: (§2) The vessels employed were plastic flowerpots having a volume of 300 cm^3; the substrate was a sandy loam containing about 1.5% humus. The seeds of the test plants (see Table 1) were sown shallow, and separated according to species. In the case of Cyperus esculentus, pregerminated tubers were planted. In the preemergence treatment, the active ingredients were then immediately applied to the surface of the soil. They were suspended or emulsified in water as the vehicle, and sprayed through atomizing nozzles. After the agents had been applied, the vessels were lightly sprinkler-irrigated to set germination and growth going, and to activate the chemical agents. The vessels were then covered with transparent plastic hoods until the plants had taken root. This cover ensured uniform germination of the test plants (to the extent that this was not impaired by the chemicals), and prevented readily volatile substances from evaporating.
(§3) For postemergence treatment, the plants were first grown to a height of from 3 to 10 cm, depending on their habit, before treated. Hoods were not placed on the pots. The experiments were set up in the greenhouse, hotter areas (25° to 40° C.) being preferred for heat-loving species, and 15° to 30° C. for plants from moderate climates. The experiments were carried out for from 4 to 6 weeks. During this period the plants were tended and their reaction to the various treatments was assessed. The following tables contain the substances investigated, the application rates in kg/ha of active ingredient, and the test plant species. Assessments were made on a 0 to 100 scale, 0 denoting no damage or normal emergence, and 100 denoting no emergence or complete destruction of at least the visible plant parts.

Alopec. myosur. [2] = test: Table 13, % damage; format: in vivo
Source text: as §2, §3

Echin c.g. = test: Table 13, % damage; format: in vivo
Source text: as §2, §3

Setar. spp. = test: Table 13, % damage; format: in vivo
Source text: as §2, §3

CCc1cccc(CC)c1N(COC)C(=O)CCl [bekannt, reference compound]
% damage (Amar. retro.; 0.25 kg/ha): 68%
% damage (Amar. retro.; 0.5 kg/ha): 81%
% damage (Amar. retro.; 1.0 kg/ha): 88%
% damage (Amar. retro.; 2.0 kg/ha): 92%
% damage (Cenchr. ech.; 0.25 kg/ha): 92%
% damage (Cenchr. ech.; 0.5 kg/ha): 95%
% damage (Cenchr. ech.; 1.0 kg/ha): 100%
% damage (Cenchr. ech.; 2.0 kg/ha): 100%
% damage (Cyp. diff.; 0.25 kg/ha): 65%
% damage (Cyp. diff.; 0.5 kg/ha): 70%
% damage (Cyp. diff.; 1.0 kg/ha): 78%
% damage (Cyp. diff.; 2.0 kg/ha): 100%
% damage (Echin. c.g.; 0.25 kg/ha): 45%
% damage (Echin. c.g.; 0.5 kg/ha): 75%
% damage (Echin. c.g.; 1.0 kg/ha): 90%
% damage (Echin. c.g.; 2.0 kg/ha): 95%
% damage (Ipom. spp.; 1.0 kg/ha): 20%
% damage (Ipom. spp.; 2.0 kg/ha): 30%
% damage (Lept. spp.; 0.25 kg/ha): 100%
% damage (Lept. spp.; 0.5 kg/ha): 100%
% damage (Lept. spp.; 1.0 kg/ha): 100%
% damage (Lept. spp.; 2.0 kg/ha): 100%
% damage (Panic. virg.; 0.25 kg/ha): 30%
% damage (Panic. virg.; 0.5 kg/ha): 45%
% damage (Panic. virg.; 1.0 kg/ha): 92%
% damage (Panic. virg.; 2.0 kg/ha): 100%
% damage (Sida spin.; 1.0 kg/ha): 10%
% damage (Sida spin.; 2.0 kg/ha): 70%
% damage (Solanum nigrum; 0.25 kg/ha): 50%
% damage (Solanum nigrum; 0.5 kg/ha): 73%
% damage (Solanum nigrum; 1.0 kg/ha): 90%
% damage (Solanum nigrum; 2.0 kg/ha): 90%
% damage (Glyc. max; 0.25 kg/ha): 0%
% damage (Glyc. max; 0.5 kg/ha): 0%
% damage (Glyc. max; 1.0 kg/ha): 0%
% damage (Glyc. max; 2.0 kg/ha): 0%
% damage (Gossyp. hirs.; 0.25 kg/ha): 0%
% damage (Gossyp. hirs.; 0.5 kg/ha): 6%
% damage (Gossyp. hirs.; 1.0 kg/ha): 20%
% damage (Gossyp. hirs.; 2.0 kg/ha): 45%

Cc1cc(C)n(CN(C(=O)CCl)c2ccccc2C)n1
% damage (Alopec. myosur. [1]; 1.0 kg/ha): 85%
% damage (Brassica napus; 1.0 kg/ha): 10%
% damage (Bromus spp.; 1.0 kg/ha): 95%
% damage (Echin. c.g.; 1.0 kg/ha): 85%
% damage (Matric. spp.; 1.0 kg/ha): 90%
% damage (Setaria spp.; 1.0 kg/ha): 60%
% damage (Solanum nigrum; 1.0 kg/ha): 100%
% damage (Zea mays; 1.0 kg/ha): 0%

Cc1cccc(C)c1N(Cn1cnc(Cl)c1Cl)C(=O)CCl
% damage (Beta vulg.; appl. rate 0.5): 0%
% damage (Beta vulg.; appl. rate 1.0): 0%
% damage (Alopec. myosur. [2]; appl. rate 0.5): 80%
% damage (Alopec. myosur. [2]; appl. rate 1.0): 80%
% damage (Echin c.g.; appl. rate 0.5): 100%
% damage (Echin c.g.; appl. rate 1.0): 100%
% damage (Setar. spp.; appl. rate 0.5): 100%
% damage (Setar. spp.; appl. rate 1.0): 100%

Cc1ccccc1N(Cn1cccn1)C(=O)CCl
% damage (Alopec. myosur. [1]; 2.0 kg/ha): 90%
% damage (Brassica napus; 2.0 kg/ha): 0%
% damage (Bromus spp.; 2.0 kg/ha): 80%
% damage (Echin. c.g.; 2.0 kg/ha): 95%
% damage (Matric. spp.; 2.0 kg/ha): 90%
% damage (Setaria spp.; 2.0 kg/ha): 95%
% damage (Solanum nigrum; 2.0 kg/ha): 95%
% damage (Zea mays; 2.0 kg/ha): 15%

Cc1cccc(C)c1N(Cn1ccnc1)C(=O)CCl
% damage (Beta vulg.; appl. rate 1.0): 0%
% damage (Alopec. myosur. [2]; appl. rate 1.0): 20%
% damage (Echin c.g.; appl. rate 1.0): 40%
% damage (Setar. spp.; appl. rate 1.0): 20%
